Source: patent US12502386B2, “Nitrogen-containing heterocyclic compound and use thereof” (SHANGHAI SHIJIANG BIOTECHNOLOGY CO., LTD, priority 2022, dated 2025)

What was measured:
Con-NCI-H82 cell = experiment: CellTiter-Glo cell viability, Con-NCI-H82 cell (empty-vector control); format: cell-based, human; conditions: Homo sapiens, NCI-H82, NCI-H82 transfected with empty virus vector (control), intracellular ATP, read-out: inhibitory effect on Con-NCI-H82 (IC50)
ov-NNMT NCI-H82 cell = experiment: CellTiter-Glo cell viability, ov-NNMT NCI-H82 cell (NNMT overexpressed); format: cell-based, human; conditions: Homo sapiens, NCI-H82, NCI-H82 overexpressing NNMT protein, intracellular ATP, read-out: inhibitory effect on OV-NNMT NCI-H82 (IC50)
sh-DNMT1 NCI-H82 cell = experiment: CellTiter-Glo cell viability, sh-DNMT1 NCI-H82 cell (DNMT1 knocked down); format: cell-based, human; conditions: Homo sapiens, NCI-H82, NCI-H82 with DNMT1 knocked down by shRNA, intracellular ATP, read-out: inhibitory effect on sh-DNMT1 NCI-H82 (IC50)
NCI-H82 = experiment: CellTiter-Glo cell viability, tumor cell line NCI-H82; format: cell-based; conditions: NCI-H82, 72 h; human small cell lung cancer cell; 3 days of culture; read-out: inhibitory effect on NCI-H82 (IC50)
Description: (§1) Cell viability was detected using the Promega CellTiter-Glo kit, cell viability was determined by directly measuring intracellular ATP content. In the experiment, the IC50 value of the compounds prepared in the Examples of the present invention on various tumor cell lines was detected.
(§2) Each tumor cell was cultured in relevant medium. After cell passage, the gradient diluted compounds prepared in the Examples of the present invention was added. After 3 days of culture, the relevant IC50 (50% inhibiting concentration) was measured. The name, source and culture conditions of each tumor cell line were as follows:
Cell line NCI-H82 (ATCC, No. HTB-175) was cultured in 10% fetal bovine serum-containing RPMI1640 medium (+P/S).

G-401 = experiment: CellTiter-Glo cell viability, tumor cell line G-401; format: cell-based; conditions: G-401, 72 h; human renal carcinoma Wilms cell; 3 days of culture; read-out: inhibitory effect on G-401 (IC50)
Description: as §1, §2
Cell line G-401 (ATCC, No. CRL-1441) was cultured in 10% fetal bovine serum-containing McCoy's 5a medium (+P/S).

MDA-MB-453 = experiment: CellTiter-Glo cell viability, tumor cell line MDA-MB-453; format: cell-based; conditions: Homo sapiens, MDA-MB-453, 72 h; breast cancer cell; 3 days of culture; read-out: inhibitory effect on MDA-MB-453 (IC50)
Description: as §1
as §2, with “follows: […]” for “follows:”

SW48 = experiment: CellTiter-Glo cell viability, tumor cell line SW48; format: cell-based; conditions: SW48, 72 h; human colon adenocarcinoma cell; 3 days of culture; read-out: inhibitory effect on SW48 (IC50)
Description: as §1, §2
Cell line SW48 (ATCC, No. CCL-231) was cultured in 10% fetal bovine serum-containing Leibovitz's L-15 medium (+P/S).

CFPAC-1 = experiment: CellTiter-Glo cell viability, tumor cell line CFPAC-1; format: cell-based; conditions: CFPAC-1, 72 h; human pancreatic cancer cell; 3 days of culture; read-out: inhibitory effect on CFPAC-1 (IC50)
Description: as §1, §2
Cell line CFPAC-1 (ATCC, No. CRL-1918) was cultured in 10% fetal bovine serum-containing IMDM medium (+P/S).

786-O = experiment: CellTiter-Glo cell viability, tumor cell line 786-O; format: cell-based; conditions: Homo sapiens, 786-0, 72 h; clear cell renal cell adenocarcinoma cell; 3 days of culture; read-out: inhibitory effect on 786-O (IC50)
Description: as §1, §2
Cell line 786-0 (ATCC, No. CRL-1932) was cultured in 10% fetal bovine serum-containing RPMI164B medium (+P/S).

GB-1 = experiment: CellTiter-Glo cell viability, tumor cell line GB-1; format: cell-based; conditions: GB-1, 72 h; human brain glioblastoma cell; 3 days of culture; read-out: inhibitory effect on GB-1 (IC50)
Description: as §1, §2
Cell line GB-1 (JCRB, No. IFO50489) was cultured in 10% fetal bovine serum-containing DMEM medium (+P/S).
(§3) Cell viability was detected using the Promega CellTiter-Glo kit, cell viability was determined by directly measuring intracellular ATP content. In the experiment, the IC50 value of the compounds prepared in the Examples of the present invention on various brain tumor cell lines was detected.

SF-126 = experiment: CellTiter-Glo cell viability, tumor cell line SF-126; format: cell-based; conditions: SF-126, 72 h, read-out: inhibitory effect on SF-126 (IC50); human glioblastoma multiforme cell; 3 days of culture
Description: as §1, §2
Cell line SF126 (JCRB, No. IFO50286) was cultured in 10% fetal bovine serum-containing EMEM medium (+P/S).
as §3

D341 Med = experiment: CellTiter-Glo cell viability, brain tumor cell line D341 Med; format: cell-based; conditions: Homo sapiens, 72 h, cerebellar medulloblastoma cell, 3 days of culture, read-out: inhibitory effect on D341 Med (IC50)
Description: as §3, §2
Cell line D341 Med (ATCC, No. HTB-187) was cultured in 20% fetal bovine serum-containing EMEM medium (+P/S).

Kelly = experiment: CellTiter-Glo cell viability, brain tumor cell line Kelly; format: cell-based; conditions: Homo sapiens, 72 h, brain neuroblastoma cell, 3 days of culture, read-out: inhibitory effect on Kelly (IC50)
Description: as §3, §2
Cell line Kelly (ECACC, No. 92110411) was cultured in 10% fetal bovine serum and 2 mM glutamine-containing RPMI1640 medium.

NB-1 = experiment: CellTiter-Glo cell viability, brain tumor cell line NB-1; format: cell-based; conditions: Homo sapiens, NB1, 72 h; brain neuroblastoma cell; 3 days of culture; read-out: inhibitory effect on NB-1 (IC50)
Description: as §3
as §2, with “follows: […]” for “follows:”

Compound	IC50 (Con-NCI-H82 cell)	IC50 (ov-NNMT NCI-H82 cell)	IC50 (sh-DNMT1 NCI-H82 cell)	IC50 (NCI-H82)	IC50 (G-401)	IC50 (MDA-MB-453)	IC50 (SW48)	IC50 (CFPAC-1)	IC50 (786-O)	IC50 (GB-1)	IC50 (SF-126)	IC50 (D341 Med)	IC50 (Kelly)	IC50 (NB-1)
C=CCOc1c(OC)ccc2c1C(C(Cl)(Cl)Cl)N1CCc3cc4c(cc3C1=C2)OCO4 (stereo not drawn) [AB35534]	1.32 µM	3.96 µM	3.84 µM	1.32 µM	2.03 µM	1.88 µM	2.45 µM	16.9 µM	14.3 µM	20.2 µM	19 µM	3.12 µM	2.09 µM	1.58 µM
COc1ccc2c(c1OC)C(C1CCCCC1)N1CCc3cc4c(cc3C1=C2)OCO4 (stereo not drawn) [AB31893]	1.12 µM	4.12 µM	5.68 µM	1.12 µM	1.44 µM	1.68 µM	1.85 µM	10.9 µM	9.72 µM	15.5 µM	12.3 µM	1.46 µM	2.09 µM	1.88 µM
COc1ccc2c(c1OC)C(C1CCC1)N1CCc3cc4c(cc3C1=C2)OCO4 (stereo not drawn) [AB36447]	2.02 µM	4.98 µM	7.12 µM	2.02 µM	2.68 µM	2.12 µM	1.96 µM	20.1 µM	> 30 µM	24.6 µM	> 30 µM	2.75 µM	1.98 µM	2.04 µM
COc1ccc2c(c1OCCCc1ccccc1)C(C(Cl)(Cl)Cl)N1CCc3cc4c(cc3C1=C2)OCO4 (stereo not drawn) [AB35525]	0.51 µM	2.02 µM	3.15 µM	0.51 µM	0.98 µM	1.68 µM	2.34 µM	16.2 µM	14 µM	> 30 µM	19.8 µM	0.96 µM	3.12 µM	1.88 µM
COc1ccc2c(c1OC)C(C(Cl)(Cl)Cl)N1CCc3cc4c(cc3C1=C2CCCc1ccccc1)OCO4 (stereo not drawn) [AB35417]	0.57 µM	1.78 µM	3.12 µM	0.57 µM	1.11 µM	1.32 µM	0.98 µM	9.88 µM	10.2 µM	14.1 µM	12.3 µM	0.88 µM	1.24 µM	2.39 µM
COc1ccc2c(c1OC/C=C(\C)CCC=C(C)C)C(C(Cl)(Cl)Cl)N1CCc3cc4c(cc3C1=C2)OCO4 (stereo not drawn) [AB35405]	0.92 µM	2.13 µM	3.86 µM	0.92 µM	0.88 µM	1.76 µM	2.34 µM	18.3 µM	13.1 µM	16 µM	20.3 µM	0.76 µM	3.12 µM	2.46 µM
CCCOc1c(OC)ccc2c1CN1CCc3cc4c(cc3C1=C2)OCO4 [AB35536]	0.52 µM	2.24 µM	2.56 µM	0.52 µM	1.39 µM	0.94 µM	1.27 µM	9.96 µM	15.5 µM	16.5 µM	23.4 µM	1.06 µM	2.56 µM	3.11 µM
COc1ccc2c(c1OCCCCl)CN1CCc3cc4c(cc3C1=C2)OCO4 [AB35543]	0.55 µM	2.68 µM	3.12 µM	0.55 µM	1.06 µM	0.88 µM	1.56 µM	10.2 µM	9.88 µM	13.4 µM	15.9 µM	1.68 µM	1.54 µM	2.36 µM
[2H]C([2H])([2H])Oc1c(OC)ccc2c1C(C1CCCC1)N1CCc3cc4c(cc3C1=C2)OCO4 (stereo not drawn) [AB36501]	0.97 µM	4.33 µM	5.12 µM	0.97 µM	0.88 µM	1.32 µM	1.16 µM	9.88 µM	13.1 µM	13.3 µM	15.5 µM	0.76 µM	1.38 µM	2.06 µM
C1=C2c3cc4c(cc3CCN2C(C2CCCC2)c2c1ccc1c2OCO1)OCO4 (stereo not drawn) [AB36423]	1.85 µM	5.11 µM	4.98 µM	1.85 µM	2.32 µM	1.66 µM	2.54 µM	14.3 µM	22.3 µM	16.1 µM	> 30 µM	1.55 µM	3.12 µM	2.98 µM
COc1ccc2c(c1OCCCCl)C(C(Cl)(Cl)Cl)N1CCc3cc4c(cc3C1=C2)OCO4 (stereo not drawn) [AB35441]	1.01 µM	3.21 µM	2.98 µM	1.01 µM	1.56 µM	0.98 µM	1.22 µM	12.3 µM	16.5 µM	24.4 µM	> 30 µM	2.32 µM	3.16 µM	1.98 µM
CCCC1=C2c3cc4c(cc3CCN2C(C2CCCC2)c2c1ccc(OC)c2OC)OCO4 (stereo not drawn) [AB35504]	2.22 µM	4.96 µM	6.76 µM	2.22 µM	3.12 µM	1.96 µM	3.56 µM	25.6 µM	20.4 µM	> 30 µM	> 30 µM	1.58 µM	3.03 µM	3.58 µM
